Data as given in ChEMBL document CHEMBL1201862, “PubChem BioAssay data set” (2004).
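Following 48 hours of exposure in 96-well plates, responses at five concentrations were used to interpolate endpoints linearly. GI50 marks 50% less growth.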 The source made the active and inactive calls. Rule as the data show it: active = GI50 up to about 1.1 µM and inactive = higher.

Legend:
Test in all cases: DTP human tumour cell line panel, 48 h
HCT-15 = tested on: HCT-15
IGROV-1 = tested on: IGROV-1
U-251 = tested on: U-251
HOP-62 = tested on: HOP-62
KM12 = tested on: KM12
Malme-3M = tested on: Malme-3M
RXF 393 = tested on: RXF 393
CCRF-CEM = tested on: CCRF-CEM
SF-539 = tested on: SF-539
SK-MEL-5 = tested on: SK-MEL-5
NCI-H226 = tested on: NCI-H226
SK-OV-3 = tested on: SK-OV-3
HCT-116 = tested on: HCT-116
MOLT-4 = tested on: MOLT-4
A498 = tested on: A498
SN12C = tested on: SN12C
TK-10 = tested on: TK-10
ACHN = tested on: ACHN
K562 = tested on: K562
SNB-75 = tested on: SNB-75

Row | Compound | GI50 (HCT-15) | GI50 (IGROV-1) | GI50 (U-251) | GI50 (HOP-62) | GI50 (KM12) | GI50 (Malme-3M) | GI50 (RXF 393) | GI50 (CCRF-CEM) | GI50 (SF-539) | GI50 (SK-MEL-5) | GI50 (NCI-H226) | GI50 (SK-OV-3) | GI50 (HCT-116) | GI50 (MOLT-4) | GI50 (A498) | GI50 (SN12C) | GI50 (TK-10) | GI50 (ACHN) | GI50 (K562) | GI50 (SNB-75)
1 | Cc1c(N2C(=O)/C(=C/c3ccc(N(CCC#N)CCC#N)cc3)N=C2c2ccccc2)c(=O)n(-c2ccccc2)n1C | 70 µM | > 100 µM (inactive) | > 100 µM (inactive) | > 100 µM (inactive) | > 100 µM (inactive) | > 100 µM (inactive) | > 100 µM (inactive) | 59.6 µM (inactive) | > 100 µM (inactive) | > 100 µM (inactive) | > 100 µM (inactive) | > 100 µM (inactive) | > 100 µM (inactive) | 75.7 µM (inactive) | > 100 µM (inactive) | > 100 µM (inactive) |  |  |  | 
2 | O=C1/C(=C/c2cccc([N+](=O)[O-])c2)N=C(c2ccccc2)N1c1nc2c(Cl)cc(Cl)cc2s1 | 29.3 µM | 23.2 µM (inactive) | 17.8 µM (inactive) | 19.7 µM (inactive) | 19.9 µM (inactive) |  | 27.9 µM (inactive) | 10.4 µM (inactive) | 22.8 µM (inactive) | 16.9 µM (inactive) |  | 31.2 µM (inactive) | 19.5 µM (inactive) | 11.5 µM (inactive) | 18.7 µM (inactive) | 22.4 µM (inactive) | 45.2 µM (inactive) | 27.7 µM (inactive) | 31.1 µM (inactive) | 
3 | O=C(O)c1cccc2c1/C(=N/Nc1ccccc1)CC2 | > 100 µM | > 100 µM (inactive) | > 100 µM (inactive) | > 100 µM (inactive) | > 100 µM (inactive) |  | > 100 µM (inactive) | > 100 µM (inactive) | > 100 µM (inactive) | > 100 µM (inactive) | 19.9 µM (inactive) | > 100 µM (inactive) | > 100 µM (inactive) | > 100 µM (inactive) | > 100 µM (inactive) |  | > 100 µM (inactive) | > 100 µM (inactive) | > 100 µM (inactive) | 
4 | COC1(OC)c2no[n+]([O-])c2CCC1O (stereo unspecified) | > 100 µM | > 100 µM (inactive) |  | > 100 µM (inactive) | > 100 µM (inactive) | > 100 µM (inactive) | > 100 µM (inactive) | > 100 µM (inactive) | > 100 µM (inactive) | > 100 µM (inactive) | > 100 µM (inactive) | > 100 µM (inactive) | > 100 µM (inactive) | > 100 µM (inactive) | > 100 µM (inactive) | > 100 µM (inactive) | > 100 µM (inactive) | > 100 µM (inactive) | > 100 µM (inactive) | 
5 | COc1ccc2c(c1)[n+]([O-])c(-c1ccc(OC)c(OC)c1)c(N)[n+]2[O-] | 37.2 µM | > 100 µM (inactive) | 68.7 µM (inactive) | > 100 µM (inactive) | 98.2 µM (inactive) | 46.3 µM (inactive) |  | 84.1 µM (inactive) | 29.4 µM (inactive) | 32.7 µM (inactive) | > 100 µM (inactive) | > 100 µM (inactive) |  | 78.5 µM (inactive) | > 100 µM (inactive) | 68.9 µM (inactive) | > 100 µM (inactive) | 51.3 µM (inactive) | 72.1 µM (inactive) | > 100 µM (inactive)
6 | CN(C)CC[N+]1=Nc2cccc3cccc(c23)N1 | 62.7 µM | 61.8 µM (inactive) | > 68.5 µM (inactive) | 71 µM (inactive) | > 100 µM (inactive) | > 100 µM (inactive) |  | 27.8 µM (inactive) | 72.9 µM (inactive) | > 52.8 µM (inactive) | 71 µM (inactive) | > 100 µM (inactive) | 3.86 µM (inactive) | 21.6 µM (inactive) | 44.6 µM (inactive) | 57.9 µM (inactive) | > 100 µM (inactive) | 28.1 µM (inactive) | 26.4 µM (inactive) | > 76.6 µM (inactive)
7 | C#CC1(O)CCCCCCCCC2(CCCCCCCC1)OCCO2 | 18 µM | 16.7 µM (inactive) | 17.1 µM (inactive) | 29.7 µM (inactive) | 18.6 µM (inactive) | 19.5 µM (inactive) | 10.9 µM (inactive) |  | 18 µM (inactive) | 19.2 µM (inactive) | 17 µM (inactive) | 18.7 µM (inactive) | 16.5 µM (inactive) |  | 14.7 µM (inactive) | 17.4 µM (inactive) | 20.7 µM (inactive) | 13.8 µM (inactive) | 17.5 µM (inactive) | 
8 | Nc1ccc(C(=O)NN2C(=O)C(Cl)C2c2cccc(O)c2)cc1 (stereo unspecified) | 12.7 µM | 14.4 µM (inactive) | 12.5 µM (inactive) | 15.4 µM (inactive) | 10.7 µM (inactive) | 20.3 µM (inactive) |  | 5.55 µM (inactive) | 17.1 µM (inactive) | 17.6 µM (inactive) | 18.5 µM (inactive) | 19.5 µM (inactive) | 4.4 µM (inactive) | 11.3 µM (inactive) | 35.2 µM (inactive) | 17.8 µM (inactive) | 16.7 µM (inactive) | 17.5 µM (inactive) | 10.8 µM (inactive) | 22.3 µM (inactive)
